Test results from patent US20070043035A1, “Novel compounds and their use in medicine: process for their preparation and pharmaceutical compositions containing them” (priority 2003, published 2007).

How the values were obtained:
[1] = target: T1, hPPARγ1 (Homo sapiens, UniProt P37231); test: Determination of hPPARγ activity (GAL4-LBD luciferase reporter in HEK-293 cells); assay type: cell-based; conditions: compound concentration 1 μM
T1 construct: expressed in transfected cells; host or cells: HEK-293
T1 sequence (P37231 238-503 limits assumed): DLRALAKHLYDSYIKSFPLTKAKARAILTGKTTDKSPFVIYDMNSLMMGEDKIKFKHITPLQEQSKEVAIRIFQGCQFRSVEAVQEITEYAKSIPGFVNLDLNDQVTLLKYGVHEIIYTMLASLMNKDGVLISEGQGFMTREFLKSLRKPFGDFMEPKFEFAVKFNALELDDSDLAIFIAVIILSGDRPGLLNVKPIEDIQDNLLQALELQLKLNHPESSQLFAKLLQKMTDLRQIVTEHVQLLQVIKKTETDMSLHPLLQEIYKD
Procedure: Ligand binding domain of hPPARγ1 is fused to DNA binding domain of Yeast transcription factor GAL4 in eucaryotic expression vector. Using lipofectamine (Gibco BRL, USA) as transfecting reagent HEK-293 cells are transfected with this plasmid and a reporter plasmid harboring the luciferase gene driven by a GAL4 specific promoter. Compound can be added at 1 μM. concentration after 48 hrs of transfection and incubated overnight Luciferase activity as a function of drug binding/activation capacity of PPARγ1 will be measured using Packard Luclite kit (Packard, USA) in Packard Top Count (Ivan Sadowski, Brendan Bell, Peter Broag and Melvyn Hollis. Gene. 1992. 118:137-141; Guide to Eukaryotic Transfections with Cationic Lipid Reagents. Life Technologies, GIBCO BRL, USA).

[2] = test system: C57BL/Ks-db/db mice; test: Efficacy in genetic models: triglyceride lowering in db/db mice; assay type: in vivo, mouse; conditions: dose 1 mg/kg, oral gavage daily for 6 days, plasma
From the text: Mutation in colonies of laboratory animals and different sensitivities to dietary regimens has made the development of animal models with non-insulin dependent diabetes and hyperlipidemia associated with obesity and insulin resistance possible. Genetic models such as db/db and ob/ob (Diabetes, (1982) 31(1): 1-6) mice and zucker fa/fa rats have been developed by the various laboratories for understanding the pathophysiology of disease and testing the efficacy of new antidiabetic compounds (Diabetes, (1983) 32: 830-838; Annu. Rep. Sankyo Res. Lab. (1994). 46: 1-57). […]
The random blood sugar and triglyceride levels can be measured by collecting blood (100 μl) through orbital sinus, using heparinised capillary in tubes containing EDTA which was centrifuged to obtain plasma. The plasma glucose and triglyceride levels can be measured spectrometrically, by glucose oxidase and glycerol-3-PO4 oxidase/peroxidase enzyme (Dr. Reddy's Lab. Diagnostic Division Kits, Hyderabad, India) methods respectively.
The blood sugar and triglycerides lowering activities of the test compound are calculated according to the formula.
(§1) Formulae for Calculation: 1. Percent reduction in Blood sugar triglycerides/total cholesterol will be calculated according to the formula: [formula] […] LDL and VLDL cholesterol levels will be calculated according to the formula: [formula] […]

[3] = target: T2, hPPARα (Homo sapiens, UniProt Q07869); test: Determination of hPPARα activity (GAL4-LBD luciferase reporter in HEK-293 cells); assay type: cell-based; conditions: compound concentration 50 μM
T2 construct: expressed in transfected cells; host or cells: HEK-293
T2 sequence (Q07869 239-466 limits assumed): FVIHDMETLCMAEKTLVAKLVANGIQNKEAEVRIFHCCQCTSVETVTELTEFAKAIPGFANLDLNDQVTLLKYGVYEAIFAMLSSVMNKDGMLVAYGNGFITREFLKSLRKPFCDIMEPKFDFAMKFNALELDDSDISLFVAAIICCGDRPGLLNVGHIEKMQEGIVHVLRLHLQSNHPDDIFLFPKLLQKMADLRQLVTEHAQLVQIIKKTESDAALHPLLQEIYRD
Procedure: Ligand binding domain of hPPARα was fused to DNA binding domain of Yeast transcription factor Gal 4 in eucaryotic expression vector. Using superfect (Qiagen, Germany) as transfecting reagent HEK-293 cells are transfected with this plasmid and a reporter plasmid harboring the luciferase gene driven by a GAL4 specific promoter. Compound can be added at different concentrations after 42 hrs of transfection and incubated overnight. Luciferase activity as a function of compound binding/activation capacity of PPARα will be measured using Packard Luclite kit (Packard, USA) in Top Count (Ivan Sadowski, Brendan Bell, Peter Broag and Melvyn Hollis. Gene. 1992. 118: 137-141; Superfect Transfection Reagent Handbook. February 1997. Qiagen, Germany).

[4] = test system: hypercholesterolemic Sprague Dawley rats; test: Plasma triglyceride and cholesterol lowering activity in hypercholesterolemic rat models; assay type: in vivo; conditions: dose 1 mg/kg, oral, 3 days
Procedure: Male Sprague Dawley rats (NIN stock) were bred in DRF animal house. Animals were maintained under 12 hour light and dark cycle at 25±1° C. Rats of 180-200 gram body weight range were used for the experiment. Animals are made hypercholesterolemic by feeding 2% cholesterol and 1% sodium cholate mixed with standard laboratory chow [National Institute of Nutrition (NE), Hyderabad, India] for 6 days. Throughout the experimental period the animals were maintained on the same diet (Petit, D., Bonnefis, M. T., Rey, C and Infante, P Effects of ciprofibrate on liver lipids and lipoprotein synthesis in normo- and hyperlipidemic rats. Atherosclerosis. 1988. 74: 215-225).
The test compounds can be administered orally at a dose 0.1 to 30 mg/kg/day for 3 days. Control group was treated with vehicle alone (0.25% Carboxymethylcellulose; dose 10 ml/kg).
The blood samples can be collected in fed state 1 hour after drug administration on 0 and 3 day of compound treatment The blood can be collected from the retro-orbital sinus through heparinised capillary in EDTA containing tubes. After centrifugation, plasma sample will be separated for total cholesterol, HDL and triglyceride estimations. Measurement of plasma triglyceride, total cholesterol and HDL are were done using commercial kits (Dr. Reddy's Laboratory, Diagnostic Division, India). LDL and VLDL cholesterol can be calculated from the data obtained for total cholesterol, HDL and triglyceride. The reduction of various parameters examined are calculated according to the formula.
(§2) Formulae for Calculation: 1. Percent reduction in Blood sugar triglycerides/total cholesterol will be calculated according to the formula: [formula] OC=Zero day control group value OT=Zero day treated group value TC=Test day control group value TT=Test day treated group value 2. LDL and VLDL cholesterol levels will be calculated according to the formula: [formula] [formula]

[5] = test system: Swiss albino mice; test: Plasma triglyceride and total cholesterol lowering activity in Swiss albino mice; assay type: in vivo, mouse; conditions: dose 3 mg/kg, oral, 6 days
Procedure: Male Swiss albino mice (SAM) were obtained from NIN and housed in DRF animal house. All these animals are maintained under 12 hour light and dark cycle at 25±1° C. Animals are given standard laboratory chow (NIN, Hyderabad, India) and water, ad libitum. SAM of 20-25 g body weight range and Guinea pigs of 500-700 g body weight range are used (Oliver, P., Plancke, M. O., Marzin, D., Clavey, V., Sauzieres, J and Fruchart, J. C. Effects of fenofibrate, gemfibrozil and nicotinic acid on plasma lipoprotein levels in normal and hyperlipidemic mice. Atherosclerosis. 1988. 70: 107-114).
The test compounds can be administered orally to Swiss albino mice at 0.3 to 30 mg/kg/day dose for 6 days. Control mice are treated with vehicle (0.25% Carboxymethylcellulose; dose 10 ml/kg). The test compounds are administered orally to Guinea pigs at 0.3 to 30 mg/kg/day dose for 6 days. Control animals are treated with vehicle (0.25% Carboxymethylcellulose; dose 5 ml/kg).
The blood samples can be collected in fed state 1 hour after drug administration on 0 and 6 day of treatment. […]
as §1

[6] = test system: cholesterol fed Syrian Hamsters; test: Body weight reducing effect in cholesterol fed hamsters; assay type: in vivo, hamster; conditions: dose 3 mg/kg, oral, 15 days
Procedure: Male Syrian Hamsters are procured from NIN, Hyderabad, India. Animals are housed at DRF animal house under 12 hour light and dark cycle at 25±1° C. with free access to food and water. Animals are maintained with 1% cholesterol containing standard laboratory chow (NIN) from the day of treatment.
The test compounds can be administered orally at 1 to 30 mg/kg/day dose for 15 days. Control group animals are treated with vehicle (Mill Q water, dose 10 ml/kg/day). Body weights are measured on every 3rd day.
as §2

melting point | SMILES | further results
52 to 54 °C | C/C(=C\COc1ccc(OC(C)(C)C(=O)O)cc1)c1ccc(-c2cc(Cl)cc(Cl)c2)cc1 [Example 38] | –
162 to 165 °C | C/C(=C\COc1ccc(SC(C)(C)C(=O)O)cc1)c1ccc(-c2ccccc2)cc1 [Example 41] | –
114 to 117 °C | CCC(C)(Oc1ccc(OC/C=C(\C)c2ccc(-c3ccccc3)cc2)cc1)C(=O)O (centres unmarked) [Example 37] | PPARγ [1]: 2.8; Triglyceride Lowering (%) [2]: 52%; PPARα [3]: 12.2; Reduction in Low Density Lipoprotien (%) ([4]; LDL calculated from total cholesterol, HDL and triglyceride): 64%; Increase in High Density Lipoprotien (%) ([4]; plasma): 70%; Reduction in Total Cholesterol (%) ([4]; plasma): 60%; Triglyceride Lowering (%) ([4]; plasma): 55%; Triglyceride Lowering (%) [5]: 71%
150 to 154 °C | C/C(=C\COc1ccc(OC(C)(C)C(=O)O)cc1)c1ccc(-c2ccc(C(F)(F)F)cc2)cc1 [Example 40] | PPARγ [1]: 1.3; PPARα [3]: 12.6
136 to 140 °C | C/C(=C\COc1ccc(OC(C(=O)O)C(C)C)cc1)c1ccc(-c2ccccc2)cc1 (centres unmarked) [Example 44] | –
184 to 188 °C | C/C(=C\CNc1ccc(OC(C)(C)C(=O)O)cc1)c1ccc(-c2ccccc2)cc1 [Example 35] | –
122 to 125 °C | CCC(C)(Oc1ccc(OC/C=C(\C)c2ccc(-c3ccc(F)cc3)cc2)cc1)C(=O)O (centres unmarked) [Example 36] | –
142 to 146 °C | C/C(=C\COc1ccc(SC(C)(C)C(=O)O)cc1)c1ccc(-c2ccc(C(F)(F)F)cc2)cc1 [Example 42] | –
155 to 158 °C | C/C(=C\COc1ccc(OC(C)(C)C(=O)O)cc1)c1ccc2c(c1)Cc1ccccc1-2 [Example 31] | –

The remaining lines, values behind:

SMILES | melting point | further results
CC(C)(Oc1ccc(OC/C=C/c2ccc(-c3ccccc3)cc2)cc1)C(=O)O [Example 43] | 172 to 174 °C | –
C/C(=C\COc1ccc(OC2(C(=O)O)CCCC2)cc1)c1ccc(-c2ccccc2)cc1 [Example 47] | 142 to 144 °C | –
CCOC(=O)C1(Oc2ccc(OC/C=C(\C)c3ccc(-c4ccccc4)cc3)cc2)CCCC1 [Example 23] | 112 to 114 °C | –
CC(C)C(Sc1ccc(OCCCc2ccc(OS(C)(=O)=O)cc2)cc1)C(=O)O (centres unmarked) [Example 28] | 115 to 118 °C | –
CCOC(=O)C(C)(C)Oc1ccc(OC/C=C(\C)c2ccc3c(c2)Cc2ccccc2-3)cc1 [Example 7] | 155 to 158 °C | –
C/C(=C\COc1ccc(OC(C)(C)C(=O)O)cc1)c1ccc(-c2ccccc2)cc1 [Example 25, 2-[4-(3-Biphenyl-4-yl-but-2-enyloxy)phenoxy]-2-methyl propanoic acid] | – | Reduction in Body weight (%) [6]: 22%; Reduction in Total Cholesterol (%) [6]: 55%; Reduction in Triglyceride (%) [6]: 45%
CC(C)(Oc1ccc(OCCCc2ccc(OS(C)(=O)=O)cc2)cc1)C(=O)O [Example 48] | 64 to 66 °C | –
CC(CCOc1ccc(OC(C)(C)C(=O)O)cc1)c1ccc(-c2ccccc2)cc1 (centres unmarked) [Example 49] | 120 to 122 °C | –
CCN1c2ccccc2Oc2ccc(/C(C)=C/COc3ccc(OC(C)(C)C(=O)O)cc3)cc21 [Example 32] | 114 to 116 °C | –
CC(C)(Oc1ccc(OC/C=C/c2ccc(OS(C)(=O)=O)cc2)cc1)C(=O)O [Example 45] | 112 to 114 °C | –
CC(C)(Oc1ccc(OCCc2ccc(-c3ccccc3)cc2)cc1)C(=O)O [Example 30] | 138 to 140 °C | –
